Literature values as cited in patent publication US20190209701A1, “COMBINATION THERAPY WITH A MEK INHIBITOR, A PD-1 AXIS INHIBITOR, AND A TAXANE” (Genentech, Inc., priority 2016, published 2019).
Like-named read-outs stand apart in the source and are kept apart here.

Columns and labels:
[1] = test system: human tumor xenograft models
[2] = test system: cancer patients who harbored a BRAF, NRAS, or KRAS mutation
[3] = test system: human tumor cell lines; conditions: through inhibition of MEK1 and MEK2
[4] = concentration-independent
[5] = not given; remark: listed apart in the source
[6] = not given; remark: listed apart in the source

| Compound | dose linearity of pharmacokinetics (dose range of 0.05 mg/kg (approximately 3.5 mg for 70 kg adult) to 80 mg) | food effect on pharmacokinetics (fed state compared with fasted state, healthy subjects) | mean terminal half-life (t1/2) (oral) [h] | absolute bioavailability (study MEK4952g in healthy subjects, 90% CI: 39.74%, 53.06%) [%] | effect of proton pump inhibitor rabeprazole on pharmacokinetics (with or without high-fat meal vs cobimetinib alone in the fasted state) | tumor regression ([1]; dose dependent, highest doses tested, CRC, malignant melanoma, breast carcinoma, lung carcinoma models) | ERK phosphorylation in xenograft tumor models ([1]; xenograft tumor models) | response of colorectal cancer (CRC) patients ([2]; 14 CRC patients) | unconfirmed tumor responses ([2]; Stage III of Study MEK4592g, 2 patients) [%] | patients with confirmed partial response (PR) ([2]; Study MEK4592g overall, 6 patients, all melanoma) [%] | patients with progressive disease ([2]; Study MEK4592g overall, 40 patients) [%] | proliferation of a variety of human tumor cell lines [3] | binding to plasma proteins [4] [%] | Kaplan-Meier estimated overall 24-week progression-free survival (PFS) rate ([5]; Study PCD4989g, 95% CI: 12%, 53%) [%] | anti-tumor activity ([5]; across doses from 1 to 20 mg/kg) | exposure of fixed dose 800 mg q2w versus 1200 mg q3w ([6]; 800 mg every two weeks (equivalent to 10 mg/kg q2w) vs Phase III dose of 1200 mg q3w) | dose linearity of pharmacokinetics ([6]; doses ≥1 mg/kg every three weeks (q3w)) |
| --- | --- | --- | --- | --- | --- | --- | --- | --- | --- | --- | --- | --- | --- | --- | --- | --- | --- |
| O=C(c1ccc(F)c(F)c1Nc1ccc(I)cc1F)N1CC(O)([C@@H]2CCCCN2)C1 [Cobimetinib] | linear pharmacokinetics | not altered | 48.8 | 45.9 | minimal effect | up to 100% | inhibits ERK phosphorylation | all patients experienced progressive disease | 11.1 | 6.2 | 41.2 | inhibits proliferation | 95 |  |  |  |  |
| Atezolizumab: anti-PD-L1 antibody, CAS Registry Number: 1422185-06-5 |  |  |  |  |  |  |  |  |  |  |  |  |  | 33 | anti-tumor activity has been observed | equivalent exposure | linear and consistent with typical IgG1 antibodies |
